Data taken from patent US7250442B2, “Dihydroindol-2-one derivatives as steroid hormone nuclear receptor modulators” (Eli Lilly and Company, priority 2003, dated 2007).

Biological target: T1, glucocorticoid receptor (Homo sapiens, UniProt P04150)
T1 construct: host or cells: A549 human lung epithelial cells (sonicated cell extract)
T1 sequence (P04150 1-777): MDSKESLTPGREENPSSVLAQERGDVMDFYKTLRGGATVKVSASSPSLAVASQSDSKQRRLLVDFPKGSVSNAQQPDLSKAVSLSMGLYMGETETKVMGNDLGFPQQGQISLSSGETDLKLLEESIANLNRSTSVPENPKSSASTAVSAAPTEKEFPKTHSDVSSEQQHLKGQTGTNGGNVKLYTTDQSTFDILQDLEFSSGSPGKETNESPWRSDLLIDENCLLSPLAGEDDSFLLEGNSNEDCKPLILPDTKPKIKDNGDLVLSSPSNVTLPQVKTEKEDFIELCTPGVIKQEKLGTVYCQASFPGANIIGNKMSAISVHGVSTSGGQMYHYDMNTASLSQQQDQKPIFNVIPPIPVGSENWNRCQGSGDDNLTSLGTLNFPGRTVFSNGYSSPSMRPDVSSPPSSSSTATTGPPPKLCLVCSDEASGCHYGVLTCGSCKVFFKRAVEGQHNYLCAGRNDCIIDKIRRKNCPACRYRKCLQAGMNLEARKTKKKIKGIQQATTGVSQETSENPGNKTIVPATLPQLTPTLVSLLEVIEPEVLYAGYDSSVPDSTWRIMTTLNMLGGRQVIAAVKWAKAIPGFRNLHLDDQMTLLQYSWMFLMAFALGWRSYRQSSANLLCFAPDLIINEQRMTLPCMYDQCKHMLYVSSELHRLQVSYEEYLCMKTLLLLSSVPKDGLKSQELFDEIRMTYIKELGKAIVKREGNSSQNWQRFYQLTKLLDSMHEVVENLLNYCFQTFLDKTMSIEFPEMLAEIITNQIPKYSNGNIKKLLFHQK
Assay: Glucocorticoid Receptor Binding Assay ([3H]-dexamethasone displacement, A549 cell extract)
Conditions: A549 human lung epithelial cell extract, 1.86 nM [3H]-dexamethasone; read-out: GR Ki
Description: Glucocorticoid Receptor Binding Assay:
A549 human lung epithelial cells (ATCC) are grown at a scale where gram quantity cell pellets are obtained. Harvested cell pellets are washed twice in cold phosphate buffered saline, centrifuged, and resuspended in cold assay binding buffer. The assay binding buffer consists of 10% glycerol, 50 mM Tris-HCl (pH7.2), 75 mM sodium chloride, 1.5 mM magnesium chloride, 1.5 mM EDTA, and 10 mM sodium molybdate. Cell suspensions were lysed via sonication, centrifuged, and the “extract” supernatant is snap frozen and stored at −80C. until needed.
GR binding assays are performed in a final volume of 140 ul containing 50-200 ug of A549 cell extract and 1.86 nM [^3H]-dexamethasone (Amersham) plus varying concentrations of test compound or vehicle. Briefly, assays are prepared at RT in 96-well Fisher 3356 plates, each well containing 100 ul of A549 cell extract, 20 ul of [^3H]-dexamethasone, and 20 ul of test compound/vehicle. Incubations are carried out at 4 degrees celsius for 16 hours. After incubation, 70 ul of 3× dextran-coated charcoal solution is added to each reaction, mixed, and incubated for 8 minutes at RT. 3×-dextran-coated charcoal solution consists of 250 ml assay binding buffer, 3.75 g Norit A charcoal (Sigma), and 1.25 g dextran T-70 (Amersham). Charcoal/unbound radioligand complexes are removed by centrifugation of the plate and 140 ul of supernatant from each well is transferred to another 96 well Optiplate (Packard Instruments). 200 ul of Microscint-20 scinillant (Packard Instruments) is added to each well and amount of receptor bound radioligand is determined using Packard Instruments TopCount instrument.
IC50 values, defined as the concentration of test compound required to decrease [^3H]-dexamethasone binding by 50%, are then determined. Ki values for each respective test compound can then be calculated by application of the Cheng-Prusoff equation as described in Cheng et al., Relationship Between The Inhibition Constant (Ki) and The Concentration of Inhibitor Which Causes 50% Inhibition (IC50) of an Enzymatic Reaction, Biochem. Pharmacol., 22: 3099-31088; (1973).

| Structure (SMILES) | Ki [nM] |
| --- | --- |
| Cc1cc(C2(c3cc(C)c(O)c(C)c3)C(=O)N(Cc3ccccc3F)c3ccccc32)cc(C)c1O [Example 50, 1-(2-Fluoro-benzyl)-3,3-bis-(4-hydroxy-3,5-dimethyl-phenyl)-1,3-dihydro-indol-2-one] | ≤ 500 |
| CCc1cccc2c1N(Cc1ccccc1Cl)C(=O)C2(c1cc(C)c(O)c(C)c1)c1cc(C)c(O)c(C)c1 [Example 25, 1-(2-Chloro-benzyl)-7-ethyl-3,3-bis-(4-hydroxy-3,5-dimethyl-phenyl)-1,3-dihydro-indol-2-one] | ≤ 1000 |
| Cc1cc(C2(c3cc(C)c(O)c(C)c3)C(=O)N(Cc3ccccc3Cl)c3ccccc32)cc(C)c1N (centres unmarked) [Example 35, 3-(4-Amino-3,5-dimethyl-phenyl)-1-(2-chloro-benzyl)-3-(4-hydroxy-3,5-dimethyl-phenyl)-1,3-dihydro-indol-2-one] | ≤ 500 |
| Cc1cc(C2(c3cc(C)c(O)c(C)c3)C(=O)N(Cc3c(C)noc3C)c3ccccc32)cc(C)c1O [Example 9, 1-(3,5-Dimethyl-isoxazol-4-ylmethyl)-3,3-bis-(4-hydroxy-3,5-dimethyl-phenyl)-1,3-dihydro-indol-2-one] | ≤ 500 |
| Cc1cc(C2(c3cc(C)c(O)c(C)c3)C(=O)N(Cc3cccc(OC(F)(F)F)c3)c3ccccc32)cc(C)c1O [Example 8, 3,3-Bis-(4-hydroxy-3,5-dimethyl-phenyl)-1-(3-trifluoromethoxy-benzyl)-1,3-dihydro-indol-2-one] | ≤ 500 |
| Cc1cc(C2(c3cc(C)c(O)c(C)c3)C(=O)N(Cc3ccc(F)cc3F)c3ccccc32)cc(C)c1O [Example 43, 1-(2,4-Difluoro-benzyl)-3,3-bis-(4-hydroxy-3,5-dimethyl-phenyl)-1,3-dihydro-indol-2-one] | ≤ 500 |
| Cc1ccc2c(c1)C(c1cc(C)c(O)c(C)c1)(c1cc(C)c(O)c(C)c1)C(=O)N2Cc1ccccc1 [Example 17, 1-Benzyl-3,3-bis-(4-hydroxy-3,5-dimethyl-phenyl)-5-methyl-1,3-dihydro-indol-2-one] | ≤ 500 |
| Cc1cc(C2(c3cc(C)c(O)c(C)c3)C(=O)N(CC3CCCCC3)c3ccccc32)cc(C)c1O [Example 6, 1-Cyclohexylmethyl-3,3-bis-(4-hydroxy-3,5-dimethyl-phenyl)-1,3-dihydro-indol-2-one] | ≤ 500 |
| Cc1cc(C2(c3ccc(O)cc3)C(=O)N(Cc3ccccc3Cl)c3ccccc32)cc(C)c1O (centres unmarked) [Example 36, 1-(2-Chloro-benzyl)-3-(4-hydroxy-3,5-dimethyl-phenyl)-3-(4-hydroxy-phenyl)-1,3-dihydro-indol-2-one] | ≤ 500 |
| Cc1cc(C2(c3cc(C)c(O)c(C)c3)C(=O)N(Cc3ccccc3-c3ccccc3)c3ccccc32)cc(C)c1O [Example 54, 1-Biphenyl-2-ylmethyl-3,3-bis-(4-hydroxy-3,5-dimethyl-phenyl)-1,3-dihydro-indol-2-one] | ≤ 1000 |
| Cc1cc(C2(c3ccc(O)c(C)c3)C(=O)N(Cc3ccccc3)c3ccccc32)ccc1O [Example 12, 1-Benzyl-3,3-bis-(4-hydroxy-3-methyl-phenyl)-1,3-dihydro-indol-2-one] | ≤ 500 |

The remaining lines, values ahead:

| Ki [nM] | Structure (SMILES) |
| --- | --- |
| ≤ 500 | COC(=O)c1cccc(-c2noc(CN3C(=O)C(c4cc(C)c(O)c(C)c4)(c4cc(C)c(O)c(C)c4)c4ccccc43)n2)c1 [Example 141, 3-{5-[3,3-Bis-(4-hydroxy-3,5-dimethyl-phenyl)-2-oxo-2,3-dihydro-indol-1-ylmethyl]-[1,2,4]oxadiazol-3-yl}-benzoic acid methyl ester] |
| ≤ 1000 | COc1ccc(-c2nc(CN3C(=O)C(c4cc(C)c(O)c(C)c4)(c4cc(C)c(O)c(C)c4)c4cc(C)ccc43)cs2)cc1 [Example 95, 3,3-Bis-(4-hydroxy-3,5-dimethyl-phenyl)-1-[2-(4-methoxy-phenyl)-thiazol-4-ylmethyl]-5-methyl-1,3-dihydro-indol-2-one] |
| ≤ 500 | Cc1cc(C2(c3cc(C)c(O)c(C)c3)C(=O)N(Cc3ccc(OC(F)(F)F)cc3)c3ccccc32)cc(C)c1O [Example 67, 3,3-Bis-(4-hydroxy-3,5-dimethyl-phenyl)-1-(4-trifluoromethoxy-benzyl)-1,3-dihydro-indol-2-one] |
| ≤ 500 | Cc1cc(C2(c3cc(C)c(O)c(C)c3)C(=O)N(Cc3cccc(C)c3F)c3ccccc32)cc(C)c1O [Example 70, 1-(2-Fluoro-3-methyl-benzyl)-3,3-bis-(4-hydroxy-3,5-dimethyl-phenyl)-1,3-dihydro-indol-2-one] |
| ≤ 500 | CCOC(=O)CN1C(=O)C(c2cc(C)c(O)c(C)c2)(c2cc(C)c(O)c(C)c2)c2ccccc21 [Example 109, [3,3-Bis-(4-hydroxy-3,5-dimethyl-phenyl)-2-oxo-2,3-dihydro-indol-1-yl]-acetic acid ethyl ester] |
| ≤ 500 | COc1cccc(CN2C(=O)C(c3cc(C)c(O)c(C)c3)(c3cc(C)c(O)c(C)c3)c3ccccc32)c1 [Example 56, 3,3-Bis-(4-hydroxy-3,5-dimethyl-phenyl)-1-(3-methoxy-benzyl)-1,3-dihydro-indol-2-one] |
| ≤ 500 | Cc1cc(C2(c3cc(C)c(O)c(C)c3)C(=O)N(Cc3c(F)cccc3Cl)c3ccccc32)cc(C)c1O [Example 76, 1-(2-Chloro-6-fluoro-benzyl)-3,3-bis-(4-hydroxy-3,5-dimethyl-phenyl)-1,3-dihydro-indol-2-one] |
| ≤ 1000 | Cc1cc(C2(c3cc(C)c(O)c(C)c3)C(=O)N(Cc3ccc(C(F)(F)F)cc3C(F)(F)F)c3ccccc32)cc(C)c1O [Example 68, 1-(2,4-Bis-trifluoromethyl-benzyl)-3,3-bis-(4-hydroxy-3,5-dimethyl-phenyl)-1,3-dihydro-indol-2-one] |
| ≤ 500 | Cc1cc(C2(c3cc(C)c(O)c(C)c3)C(=O)N(Cc3ccncc3)c3ccccc32)cc(C)c1O [Example 111, 3,3-Bis-(4-hydroxy-3,5-dimethyl-phenyl)-1-pyridin-4-ylmethyl-1,3-dihydro-indol-2-one] |
| ≤ 10000 | Cc1cc(C2(c3cc(C)c(O)c(C)c3)C(=O)N(Cc3csc(-c4ccccc4)n3)c3ccccc32)cc(C)c1O [Example 91, 3,3-Bis-(4-hydroxy-3,5-dimethyl-phenyl)-1-(2-phenyl-thiazol-4-ylmethyl)-1,3-dihydro-indol-2-one] |
| ≤ 500 | Cc1cc(C2(c3cc(C)c(O)c(C)c3)C(=O)N(Cc3noc(-c4ccco4)n3)c3ccccc32)cc(C)c1O [Example 87, 1-(5-Furan-2-yl-[1,2,4]oxadiazol-3-ylmethyl)-3,3-bis-(4-hydroxy-3,5-dimethyl-phenyl)-1,3-dihydro-indol-2-one] |
| ≤ 500 | CC(C)=CCN1C(=O)C(c2cc(C)c(O)c(C)c2)(c2cc(C)c(O)c(C)c2)c2ccccc21 [Example 102, 3,3-Bis-(4-hydroxy-3,5-dimethyl-phenyl)-1-(3-methyl-but-2-enyl)-1,3-dihydro-indol-2-one] |
| ≤ 500 | Cc1cc(C2(c3cc(C)c(O)c(C)c3)C(=O)N(Cc3ccc([N+](=O)[O-])o3)c3ccccc32)cc(C)c1O [Example 73, 3,3-Bis-(4-hydroxy-3,5-dimethyl-phenyl)-1-(5-nitro-furan-2-ylmethyl)-1,3-dihydro-indol-2-one] |
| ≤ 500 | CCCCCN1C(=O)C(c2cc(C)c(O)c(C)c2)(c2cc(C)c(O)c(C)c2)c2ccccc21 [Example 77, 3,3-Bis-(4-hydroxy-3,5-dimethyl-phenyl)-1-pentyl-1,3-dihydro-indol-2-one] |
| ≤ 1000 | CCc1nc(CN2C(=O)C(c3cc(C)c(O)c(C)c3)(c3cc(C)c(O)c(C)c3)c3ccccc32)cs1 [Example 90, 1-(2-Ethyl-thiazol-4-ylmethyl)-3,3-bis-(4-hydroxy-3,5-dimethyl-phenyl)-1,3-dihydro-indol-2-one] |
